Test results taken from article PMC4805082, “Seizure control by decanoic acid through direct AMPA receptor inhibition” (Brain, 2015).

Legend:
[1] = set-up: method as in earlier work; conditions: average; children with intractable epilepsy on MCT diet; ref Haidukewych et al., 1982; Sills et al., 1986a; Dean et al., 1989; cited from earlier work
AMPA receptor GluA1/2 = target: T1, AMPA receptor GluA1/2 (Homo sapiens, UniProt P42261+P42262); assay: Two-electrode voltage clamp, AMPA receptor GluA1/2 expressed in Xenopus oocytes; assay type: cell-based
T1 construct: expressed in transfected cells; host or cells: Xenopus laevis oocytes injected with cRNA (1:1 mix)
T1 sequence (P42261 19-906 isoform P42261-2 limits assumed): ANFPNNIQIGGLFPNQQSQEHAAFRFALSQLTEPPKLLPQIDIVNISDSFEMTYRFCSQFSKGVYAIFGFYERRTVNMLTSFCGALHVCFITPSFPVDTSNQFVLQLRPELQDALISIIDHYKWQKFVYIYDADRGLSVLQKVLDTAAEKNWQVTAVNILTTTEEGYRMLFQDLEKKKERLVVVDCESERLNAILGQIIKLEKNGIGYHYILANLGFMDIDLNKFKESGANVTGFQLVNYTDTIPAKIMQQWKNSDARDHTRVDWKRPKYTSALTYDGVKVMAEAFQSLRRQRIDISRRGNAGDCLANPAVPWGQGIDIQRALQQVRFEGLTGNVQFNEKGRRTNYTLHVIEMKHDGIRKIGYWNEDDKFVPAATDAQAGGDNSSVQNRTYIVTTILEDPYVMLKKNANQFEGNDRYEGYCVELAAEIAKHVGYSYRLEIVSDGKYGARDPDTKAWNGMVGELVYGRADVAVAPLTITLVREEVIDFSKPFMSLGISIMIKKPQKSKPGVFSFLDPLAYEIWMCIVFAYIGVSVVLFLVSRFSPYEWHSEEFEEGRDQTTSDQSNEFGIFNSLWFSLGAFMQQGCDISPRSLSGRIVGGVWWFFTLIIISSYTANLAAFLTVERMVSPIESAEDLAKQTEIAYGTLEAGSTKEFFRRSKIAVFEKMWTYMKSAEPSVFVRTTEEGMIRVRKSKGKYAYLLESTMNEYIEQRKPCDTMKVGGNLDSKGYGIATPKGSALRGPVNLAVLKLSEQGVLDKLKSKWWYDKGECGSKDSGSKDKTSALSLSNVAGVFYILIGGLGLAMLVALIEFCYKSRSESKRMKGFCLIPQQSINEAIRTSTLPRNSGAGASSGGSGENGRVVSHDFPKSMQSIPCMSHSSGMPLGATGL
T1 sequence (P42262 22-883 isoform P42262-2 limits assumed): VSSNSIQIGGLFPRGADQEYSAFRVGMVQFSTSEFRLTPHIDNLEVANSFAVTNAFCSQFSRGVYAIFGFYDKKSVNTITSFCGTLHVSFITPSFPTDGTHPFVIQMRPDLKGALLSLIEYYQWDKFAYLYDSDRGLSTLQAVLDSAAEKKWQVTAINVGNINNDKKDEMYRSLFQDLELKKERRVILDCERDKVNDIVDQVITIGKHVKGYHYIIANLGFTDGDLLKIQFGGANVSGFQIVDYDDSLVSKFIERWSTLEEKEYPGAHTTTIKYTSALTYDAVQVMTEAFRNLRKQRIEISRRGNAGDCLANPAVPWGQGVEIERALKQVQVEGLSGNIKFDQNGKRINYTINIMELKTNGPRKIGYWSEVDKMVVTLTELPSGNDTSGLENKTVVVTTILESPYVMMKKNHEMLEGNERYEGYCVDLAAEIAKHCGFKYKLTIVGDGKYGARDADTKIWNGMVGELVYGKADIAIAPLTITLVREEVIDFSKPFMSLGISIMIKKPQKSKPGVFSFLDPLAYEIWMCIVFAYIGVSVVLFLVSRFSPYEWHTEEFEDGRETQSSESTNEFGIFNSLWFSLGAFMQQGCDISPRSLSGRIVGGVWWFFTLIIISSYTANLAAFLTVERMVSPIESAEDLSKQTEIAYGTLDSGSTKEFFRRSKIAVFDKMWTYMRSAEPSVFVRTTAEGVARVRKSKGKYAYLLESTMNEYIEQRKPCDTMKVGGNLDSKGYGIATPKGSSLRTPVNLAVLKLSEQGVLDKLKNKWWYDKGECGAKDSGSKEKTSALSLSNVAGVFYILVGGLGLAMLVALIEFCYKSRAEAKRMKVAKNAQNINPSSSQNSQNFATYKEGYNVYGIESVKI
Protocol: The AMPA receptor (flip isoform) cDNAs inserted in a SP6 polymerase expression vector (pSP6T) were a generous gift from Prof. Ralf Schoepfer (NPP, UCL). […] AMPA receptor cRNAs were mixed in a nominal 1:1 ratio and ∼5 ng was injected per oocyte.
Xenopus laevis oocytes were purchased from the European Xenopus Resource Centre, University of Portsmouth. Stage V to VI oocytes were mechanically dissected and then subjected to gentle shaking for ∼30–50 min at room temperature with modified Barth’s solution (in mM): 88 NaCl, 1 KCl, 2.4 NaHCO3, 0.82 MgCl2, 0.77 CaCl2, 15 Tris-Cl, adjusted to pH 7.4 with NaOH (Sigma-Aldrich), supplemented with 50 IU/ml penicillin and 50 µg/ml streptomycin (Invitrogen) and 50 µg/ml tetracycline (Sigma-Aldrich) and 1% collagenase (type 1A). Healthy oocytes were manually defolliculated and the injections of cRNA for homomeric subunits alone (GluA1), or heteromeric mixtures of two subunits together (GluA1/GluA2 or GluA2/GluA3) were made using an automated Drummond Nanoinject II injector. The oocytes were then incubated at 17°C in modified Barth’s solution for at least 48 h before use in electrophysiological recordings.
Experiments were performed at room temperature (∼21–23°C). […]

[2] = test system: epileptiform activity (burst discharges) in hippocampal slices induced by pentylenetetrazol; assay: In vitro seizure model, pentylenetetrazol-induced epileptiform activity in hippocampal slices; assay type: cell-based, rat; conditions: 1 mM; pentylenetetrazol 2 mM, K+ 6 mM
Protocol: Male Sprague-Dawley rats (postnatal Days 19–30) were sacrificed using an overdose of isoflurane or pentobarbitone (500 mg/kg). After decapitation the brain was rapidly removed, the hippocampus or entorhinal cortex-hippocampus slices was dissected from the brain and […] thick transverse slices were prepared on a VT1200S vibratome (Leica) or Vibratome (Vibratome® 1500 sectioning system, Intracell). The slicing was performed in ice-cold sucrose-based solution containing (in mM): 75 sucrose, 87 NaCl, 22 glucose, 2.5 KCl, 7 MgCl2, 1.25 NaH2PO4, 0.5 CaCl2 and 25 NaHCO3, pH 7.4, 315–330 mOsm equilibrated with 95% O2 plus 5% CO2. The slices were then stored in a continuously oxygenated humidified interface holding chamber containing oxygenated artificial CSF (in mM): 120 NaCl, 22 glucose, 2.5 KCl, 1.3 MgSO4, 1 NaH2PO4, 25 NaHCO3 and 2.5 CaCl2, pH 7.4 296 mOsm, where they recovered for at least 1 h before use.
During the experiment, slices were transferred from the interface chamber into a submerged recording chamber, designed to optimize wash-in and wash-out of drugs, and continuously perfused using gravity feed at 3–6 ml/min with prewarmed (36°C) oxygenated artificial CSF (95% O2, 5% CO2). Field potentials were recorded with a glass microelectrode (1–2 MΩ) filled with artificial CSF solution placed in stratum radiatum of CA1 and were filtered at 1 kHz and digitized at 2 kHz (using an npi EXT-02F extracellular amplifier recorded with WinEDR software). In the pentylenetetrazol model, the epileptiform (paroxysmal) activity was induced by application of pentylenetetrazol (2 mM) to the perfusate and [K^+] was increased (to 6 mM); in low-Mg^2+ model, the epileptiform activity was elicited by using Mg^2+-free artificial CSF. Once the frequency of the paroxysmal activity was stable for at least 10 min, compounds were applied to the perfusate for the following 40 min, and washed out for a remaining 20 min. The anticonvulsant effects were evaluated by measuring the change in the frequency of the discharges at minute intervals. The discharge frequency was then averaged every 5 min during the experiment and normalized to baseline. The compounds applied in this study included: 1% dimethyl sulphoxide (DMSO), acetone (10 mM, Sigma), (±)-sodium 3-hydroxybutyrate (BHB) (10 mM, Sigma), and decanoic acid (1 mM, Alfa Aesar Pty). Acetone and decanoic acids were prepared as 1000× stocks in DMSO, and BHB was prepared as 100× stock. Stocks were dissolved in artificial CSF to achieve their final concentrations during experiments, and where applicable, experiments included constant levels of DMSO.

- IC50 (AMPA receptor GluA1/2): 1160 µM
Compound: CCCCCCCCCC(=O)O [decanoic acid]
- serum concentration [1]: 156.7 µM
- effect on epileptiform activity [2]: completely blocked
